Experimental data taken from PubChem BioAssay (NCI).
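96-well plates; 48 h exposure; 5 concentrations. Endpoints by linear interpolation between flanking doses. Not reached: highest tested concentration assigned. GI50 marks 50% less growth. TGI: concentration producing complete growth inhibition.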

Key:
Test in all cases: inhibition of tumour cell growth, NCI panel, 48 h; in the data active means GI50 below about 0.43 µM; inactive means the rest
CCRF-CEM leukemia = system: CCRF-CEM leukemia
NCI-H23 lung = system: NCI-H23 lung
NCI/ADR-RES ovarian = system: NCI/ADR-RES ovarian
HCC-2998 colon = system: HCC-2998 colon
TK-10 renal = system: TK-10 renal
SK-MEL-5 melanoma = system: SK-MEL-5 melanoma
SK-MEL-28 melanoma = system: SK-MEL-28 melanoma
HCT-116 colon = system: HCT-116 colon
HOP-62 NSCLC = system: HOP-62 NSCLC
SF-268 CNS = system: SF-268 CNS
MOLT-4 leukemia = system: MOLT-4 leukemia
SF-295 CNS = system: SF-295 CNS
MALME-3M melanoma = system: MALME-3M melanoma
OVCAR-8 ovarian = system: OVCAR-8 ovarian
OVCAR-5 ovarian = system: OVCAR-5 ovarian
UO-31 renal = system: UO-31 renal
EKVX NSCLC = system: EKVX NSCLC
A498 renal = system: A498 renal
COLO 205 colon = system: COLO 205 colon
ACHN renal = system: ACHN renal
MCF7 breast = system: MCF7 breast
SK-MEL-2 melanoma = system: SK-MEL-2 melanoma
IGROV1 ovarian = system: IGROV1 ovarian
LOX IMVI melanoma = system: LOX IMVI melanoma
SNB-19 CNS = system: SNB-19 CNS
KM12 colon = system: KM12 colon
OVCAR-4 ovarian = system: OVCAR-4 ovarian
MDA-MB-435 = system: MDA-MB-435
HS 578T breast = system: HS 578T breast
OVCAR-3 ovarian = system: OVCAR-3 ovarian
HT29 colon = system: HT29 colon
HL-60(TB) leukemia = system: HL-60(TB) leukemia
786-0 renal = system: 786-0 renal
HCT-15 colon = system: HCT-15 colon
NCI-H226 lung = system: NCI-H226 lung
HOP-92 NSCLC = system: HOP-92 NSCLC
K-562 leukemia = system: K-562 leukemia
MDA-MB-231 breast = system: MDA-MB-231 breast
SF-539 CNS = system: SF-539 CNS
SN12C renal = system: SN12C renal
A549 NSCLC = system: A549 NSCLC
UACC-62 melanoma = system: UACC-62 melanoma
UACC-257 melanoma = system: UACC-257 melanoma
CAKI-1 renal = system: CAKI-1 renal
NCI-H522 lung = system: NCI-H522 lung
SNB-75 CNS = system: SNB-75 CNS
PC-3 prostate = system: PC-3 prostate
SK-OV-3 ovarian = system: SK-OV-3 ovarian
SR leukemia = system: SR leukemia
T-47D breast = system: T-47D breast
DU-145 prostate = system: DU-145 prostate
SW-620 colon = system: SW-620 colon
RPMI-8226 leukemia = system: RPMI-8226 leukemia
NCI-H460 lung = system: NCI-H460 lung
M14 melanoma = system: M14 melanoma
BT-549 breast = system: BT-549 breast
RXF 393 renal = system: RXF 393 renal
U251 CNS = system: U251 CNS

Nc1nc(Cl)nc2c1ncn2C1OC(CO)C(O)C1O (stereo unspecified)
> 73.4 µM: TGI (786-0 renal)
4.2 µM: TGI (M14 melanoma)
inactive: GI50 (NCI-H23 lung) 4.08 µM | GI50 (NCI/ADR-RES ovarian) 0.579 µM | GI50 (HCC-2998 colon) > 21.9 µM | GI50 (TK-10 renal) > 100 µM | GI50 (SK-MEL-5 melanoma) 2.89 µM | GI50 (SK-MEL-28 melanoma) > 100 µM | GI50 (HCT-116 colon) 4.23 µM | GI50 (HOP-62 NSCLC) 3.36 µM | GI50 (SF-268 CNS) 10.7 µM | GI50 (MOLT-4 leukemia) 0.493 µM | GI50 (SF-295 CNS) > 100 µM | GI50 (MALME-3M melanoma) > 100 µM | GI50 (OVCAR-5 ovarian) 86.9 µM | GI50 (UO-31 renal) 3.32 µM | GI50 (EKVX NSCLC) > 96.8 µM | GI50 (A498 renal) > 64.4 µM | GI50 (COLO 205 colon) 5.76 µM | GI50 (ACHN renal) 3.98 µM | GI50 (MCF7 breast) 1.66 µM | GI50 (SK-MEL-2 melanoma) > 100 µM | GI50 (IGROV1 ovarian) > 100 µM | GI50 (LOX IMVI melanoma) 15.2 µM | GI50 (SNB-19 CNS) 2.72 µM | GI50 (KM12 colon) > 100 µM | GI50 (OVCAR-4 ovarian) > 100 µM | GI50 (MDA-MB-435) 3.01 µM | GI50 (HS 578T breast) > 100 µM | GI50 (OVCAR-3 ovarian) > 100 µM | GI50 (HT29 colon) > 93.3 µM | GI50 (786-0 renal) 2.57 µM | GI50 (HCT-15 colon) 7.57 µM | GI50 (NCI-H226 lung) > 100 µM | GI50 (HOP-92 NSCLC) 6.27 µM | GI50 (K-562 leukemia) > 85.3 µM | GI50 (MDA-MB-231 breast) > 100 µM | GI50 (SF-539 CNS) > 90.1 µM | GI50 (SN12C renal) 0.899 µM | GI50 (A549 NSCLC) 4.41 µM | GI50 (UACC-62 melanoma) 5.7 µM | GI50 (UACC-257 melanoma) > 100 µM | GI50 (CAKI-1 renal) 4.3 µM | GI50 (NCI-H522 lung) > 100 µM | GI50 (SNB-75 CNS) > 100 µM | GI50 (PC-3 prostate) > 100 µM | GI50 (SK-OV-3 ovarian) 7.5 µM | GI50 (SR leukemia) 8.92 µM | GI50 (T-47D breast) > 100 µM | GI50 (DU-145 prostate) 6.76 µM | GI50 (SW-620 colon) 36.1 µM | GI50 (RPMI-8226 leukemia) > 100 µM | GI50 (NCI-H460 lung) 12.6 µM | GI50 (M14 melanoma) 0.999 µM | GI50 (BT-549 breast) 16.8 µM | GI50 (RXF 393 renal) > 100 µM | GI50 (U251 CNS) 13.2 µM
active: GI50 (CCRF-CEM leukemia) 0.264 µM | GI50 (OVCAR-8 ovarian) 0.403 µM | GI50 (HL-60(TB) leukemia) 0.374 µM
> 41.2 µM: TGI (MOLT-4 leukemia)
> 93.6 µM: TGI (HL-60(TB) leukemia)
> 100 µM: TGI (CCRF-CEM leukemia) | TGI (NCI-H23 lung) | TGI (NCI/ADR-RES ovarian) | TGI (HCC-2998 colon) | TGI (TK-10 renal) | TGI (SK-MEL-5 melanoma) | TGI (SK-MEL-28 melanoma) | TGI (HCT-116 colon) | TGI (HOP-62 NSCLC) | TGI (SF-268 CNS) | TGI (SF-295 CNS) | TGI (MALME-3M melanoma) | TGI (OVCAR-8 ovarian) | TGI (OVCAR-5 ovarian) | TGI (UO-31 renal) | TGI (EKVX NSCLC) | TGI (A498 renal) | TGI (COLO 205 colon) | TGI (ACHN renal) | TGI (MCF7 breast) | TGI (SK-MEL-2 melanoma) | TGI (IGROV1 ovarian) | TGI (LOX IMVI melanoma) | TGI (SNB-19 CNS) | TGI (KM12 colon) | TGI (OVCAR-4 ovarian) | TGI (MDA-MB-435) | TGI (HS 578T breast) | TGI (OVCAR-3 ovarian) | TGI (HT29 colon) | TGI (HCT-15 colon) | TGI (NCI-H226 lung) | TGI (HOP-92 NSCLC) | TGI (K-562 leukemia) | TGI (MDA-MB-231 breast) | TGI (SF-539 CNS) | TGI (SN12C renal) | TGI (A549 NSCLC) | TGI (UACC-62 melanoma) | TGI (UACC-257 melanoma) | TGI (CAKI-1 renal) | TGI (NCI-H522 lung) | TGI (SNB-75 CNS) | TGI (PC-3 prostate) | TGI (SK-OV-3 ovarian) | TGI (SR leukemia) | TGI (T-47D breast) | TGI (DU-145 prostate) | TGI (SW-620 colon) | TGI (RPMI-8226 leukemia) | TGI (NCI-H460 lung) | TGI (BT-549 breast) | TGI (RXF 393 renal) | TGI (U251 CNS)
